Test results taken from patent US7834011B2, “Heterocyclylalkyl derivatives as novel inhibitors of histone deacetylase” (Janssen Pharmaceutica N.V., priority 2006, dated 2010).
Values after ≈ are worked out from the molar mass of the structure shown.

What was measured:
[1] = target: histone deacetylase (HeLa nuclear extracts); assay: In vitro assay for inhibition of histone deacetylase with fluorescent-labelled substrate (Fluor de Lys); format: biochemical
From the text: The in vitro assay for inhibition of histone deacetylase (see example C.1) measures the inhibition of HDAC enzymatic activity obtained with the compounds of formula (I).
The HDAC Fluorescent Activity Assay/Drug Discovery Kit of Biomol (cat. No: AK-500-0001) was used. The HDAC Fluorescent Activity Assay is based on the Fluor de Lys (Fluorogenic Histone deAcetylase Lysyl) substrate and developer combination. The Fluor de Lys substrate, comprises an acetylated lysine side chain. Deacetylation of the substrate sensitizes the substrate so that, in the second step, treatment with the Fluor de Lys developer produces a fluorophore.
HeLa nuclear extracts (supplier: Biomol) were incubated at 60 μg/ml with 75 μM of substrate. The Fluor de Lys substrate was added in a buffer containing 25 mM Tris, 137 mM NaCl, 2.7 mM KCl and 1 mM MgCl2.6H2O at pH 7.4. After 30 min, 1 volume of the developer was added. The fluorophore was excited with 355 nm light and the emitted light (450 nm) was be detected on a fluorometric plate reader.
For each experiment, controls (containing HeLa nuclear extract and buffer), a blank incubation (containing buffer but no HeLa nuclear extract) and samples (containing compound dissolved in DMSO and further diluted in buffer and HeLa nuclear extract) were run in parallel. In first instance, compounds were tested at a concentration of 10^−5M. […] All sample were tested 4 times. In each test the blank value was subtracted from both the control and the sample values. The control sample represented 100% of substrate deactylation. For each sample the fluorescence was expressed as a percentage of the mean value of the controls. […] Herein the effects of test compounds are expressed as pIC50 (the negative log value of the IC50-value) (see Table F-2).

[2] = system: A2780 ovarian carcinoma cells; assay: Antiproliferative activity on A2780 cells (MTT); format: cell-based; details: Homo sapiens, 96 h, four days of incubation, read-out: Cellular activity pIC50 C.2 (converted)
Experimental: Cellular activity of the compounds of formula (I) was determined on A2780 tumour cells using a colorimetric assay for cell toxicity or survival (Mosmann Tim, Journal of Immunological Methods 65: 55-63, 1983)(see example C.2).
All compounds tested were dissolved in DMSO and further dilutions were made in culture medium. Final DMSO concentrations never exceeded 0.1% (v/v) in cell proliferation assays. Controls contained A2780 cells and DMSO without compound and blanks contained DMSO but no cells. MTT was dissolved at 5 mg/ml in PBS. A glycine buffer comprised of 0.1 M glycine and 0.1 M NaCl buffered to pH 10.5 with NaOH (1 N) was prepared (all reagents were from Merck).
The human A2780 ovarian carcinoma cells (a kind gift from Dr. T. C. Hamilton [Fox Chase Cancer Centre, Pennsylvania, USA]) were cultured in RPMI 1640 medium supplemented with 2 mM L-glutamine, 50 μg/ml gentamicin and 10% fetal calf serum. Cells were routinely kept as monolayer cultures at 37° C. in a humidified 5% CO2 atmosphere. Cells were passaged once a week using a trypsin/EDTA solution at a split ratio of 1:40. All media and supplements were obtained from Life Technologies. Cells were free of mycoplasma contamination as determined using the Gen-Probe Mycoplasma Tissue Culture kit (supplier: BioMérieux).
Cells were seeded in NUNC™ 96-well culture plates (Supplier: Life Technologies) and allowed to adhere to the plastic overnight. Densities used for plating were 1500 cells per well in a total volume of 200 μl medium. After cell adhesion to the plates, medium was changed and drugs and/or solvents were added to a final volume of 200 μl. Following four days of incubation, medium was replaced by 200 μl fresh medium and cell density and viability was assessed using an MTT-based assay. To each well, 25 μl MTT solution was added and the cells were further incubated for 2 hours at 37° C. The medium was then carefully aspirated and the blue MTT-formazan product was solubilized by addition of 25 μl glycine buffer followed by 100 μl of DMSO. […] Within an experiment, the results for each experimental condition are the mean of 3 replicate wells. For initial screening purposes, compounds were tested at a single fixed concentration of 10^−6 M. For active compounds, the experiments were repeated to establish full concentration-response curves. For each experiment, controls (containing no drug) and a blank incubation (containing no cells or drugs) were run in parallel. The blank value was subtracted from all control and sample values. For each sample, the mean value for cell growth (in absorbance units) was expressed as a percentage of the mean value for cell growth of the control. […] Herein the effects of test compounds are expressed as pIC50 (the negative log value of the IC50-value)(see Table F-2).

[3] = Solubility at pH 2.3 (chemiluminescent nitrogen detector); format: physicochemical; details: pH 2.3, aqueous buffer; read-out: Solubility C.3.c. pH = 2.3
From the text: In a third method the solubility of a compound at different pH's can be measured with the use of a Chemiluminescent Nitrogen Detector (see example C.3.c).
The solubility of a compound, at pH 2.3, can also be measured with the use of a chemiluminescent nitrogen detector (see Table F-2).

Row | SMILES | Enzymatic activity pIC50 C.1 [1] | IC50 [2] | melting point | solubility [3]
1 | Cn1nc(CNCC2CN(c3ncc(C(=O)NO)cn3)CCO2)c2ccccc21 (stereo not shown) [Compound 4] | 7.8 | 200 nM | 193 °C | 
2 | Cn1nc(CNCC2CN(c3ncc(C(=O)Nc4ccccc4N)cn3)CCO2)c2ccccc21 (stereo not shown) [Compound 5] |  |  | 152 °C | 
3 | Cn1nc(CN2CCN(c3ccc(C(=O)Nc4ccccc4N)cn3)CC2)c2ccccc21 [Compound 6] |  |  | 219 °C | 
4 | Cn1nnc2cc(COCC3CCN(c4ncc(C(=O)NO)cn4)CC3)ccc21 [Compound 7] | 7.8 | 200 nM | 197 °C | 
5 | O=C(NO)c1cnc(N2CCC(CNCc3nc4ccccc4s3)CC2)nc1 [Compound 8] | 8.2 | 100 nM | 208 °C | 2500 µg/mL (≈ 6.27 mM)
6 | CCN(Cc1ccc2c(c1)nnn2C)CC1CCN(c2ncc(C(=O)NO)cn2)CC1 [Compound 9] | 8.3 | 200 nM | 168 °C | 2400 µg/mL (≈ 5.65 mM)
7 | CCN(Cc1ccc2nnn(C)c2c1)CC1CCN(c2ncc(C(=O)NO)cn2)CC1 [Compound 10] | 8.7 | 50.1 nM | 110 °C | 2700 µg/mL (≈ 6.36 mM)
8 | Cn1nnc2cc(CN(CC3CCN(c4ncc(C(=O)NO)cn4)CC3)C(=O)NO)ccc21 [Compound 11] | 8.5 | 794 nM | 130 °C | 
9 | Cn1nnc2ccc(CN(CC3CCN(c4ncc(C(=O)NO)cn4)CC3)S(C)(=O)=O)cc21 [Compound 12] | 7.8 | 1260 nM | 260 °C | < 10 µg/mL
10 | CCC(=O)N(Cc1nn(C)c2ccccc12)CC1CCN(c2ncc(C(=O)NO)cn2)CC1 [Compound 13] | 7.6 | 251 nM | 199 °C | < 10 µg/mL
11 | Cn1nc(CN2CCN(c3ccc(C(=O)NO)cn3)CC2)c2ccccc21 [Compound 14] | 7.5 | 158 nM |  | 
12 | Cn1cc(CNCC2CCN(c3ncc(C(=O)NO)cn3)CC2)c2cccnc21 [Compound 15] | 8.2 | 39.8 nM |  | 
13 | Cn1nc(CNCC2CCN(c3ccc(C(=O)NO)cn3)CC2)c2ccccc21 [Compound 16] | 7.5 | 100 nM |  | 
14 | CCCn1nc(CNCC2CCN(c3ncc(C(=O)NO)cn3)CC2)c2ccccc21 [Compound 17] | 9.0 | 31.6 nM |  | 3800 µg/mL (≈ 8.97 mM)
15 | CC(C)n1nnc2cc(CNCC3CCN(c4ncc(C(=O)NO)cn4)CC3)ccc21 [Compound 18] | 7.6 | 158 nM |  | 
16 | Cn1nc2ccccc2c1CNCC1CCN(c2ncc(C(=O)NO)cn2)CC1 [Compound 19] | 8.1 | 1580 nM |  | 2500 µg/mL (≈ 6.32 mM)
17 | Cn1nnc2cc(CNCC3CCN(c4ncc(C(=O)NO)cn4)CC3)ccc21 [Compound 20] | 7.8 | 158 nM |  | 2500 µg/mL (≈ 6.31 mM)
18 | CC(=O)N(Cc1nc2ccccc2n1C)CC1CCN(c2ncc(C(=O)NO)cn2)CC1 [Compound 21] | 7.5 | 794 nM |  | 1900 µg/mL (≈ 4.34 mM)
19 | Cc1nc2ccc(CNCC3CCN(c4ncc(C(=O)NO)cn4)CC3)cc2[nH]1 [Compound 23] | 8.0 | 1000 nM |  | 
20 | CCN(Cc1ccc2c(c1)nnn2C(C)C)CC1CCN(c2ncc(C(=O)NO)cn2)CC1 [Compound 24] | 8.4 | 50.1 nM |  | 4600 µg/mL (≈ 10.2 mM)
21 | Cn1nnc2cc(CN(CC#N)CC3CCN(c4ncc(C(=O)NO)cn4)CC3)ccc21 [Compound 25] | 7.7 | 126 nM |  | 
22 | CC(=O)N(Cc1ccc2c(c1)nnn2C)CC1CCN(c2ncc(C(=O)NO)cn2)CC1 [Compound 26] | 7.4 | 1580 nM |  | 
23 | CCC(=O)N(Cc1ccc2nnn(C)c2c1)CC1CCN(c2ncc(C(=O)NO)cn2)CC1 [Compound 27] | 6.9 | 2000 nM |  | < 10 µg/mL
24 | CCCn1nc(CN(CC2CCN(c3ncc(C(=O)NO)cn3)CC2)C(=O)CC)c2ccccc21 [Compound 28] | 7.4 | 251 nM |  | 10 µg/mL (≈ 0.0209 mM)
25 | CC(=O)N(Cc1ccc2c(c1)nnn2C(C)C)CC1CCN(c2ncc(C(=O)NO)cn2)CC1 [Compound 29] | 7.2 | 794 nM |  | 400 µg/mL (≈ 0.857 mM)
26 | CCCn1nc(CN2CCN(c3ccc(C(=O)Nc4cc(-c5cccs5)ccc4N)cn3)CC2)c2ccccc21 [Compound 31] |  |  | 138 °C | 
